According to US20120129872A1, “FUSED HETEROARYL INHIBITORS OF PRO-MATRIX METALLOPROTEINASE ACTIVATION” (priority 2010, published 2012):
Where a name gives a salt, the structure may show the parent alone.

Assays:
[1] = biological target: T1, proMMP9(20-445;ΔFnII) (SEQ ID NO:6) (Homo sapiens, UniProt P14780, DEL216-390); test: ThermoFluor binding assay with proMMP9(20-445;ΔFnII)
T1 construct: start methionine (N); made in house; host or cells: E. coli BL21(DE3) RIL
T1 sequence (P14780 with tags, fused parts or gaps DEL216-390): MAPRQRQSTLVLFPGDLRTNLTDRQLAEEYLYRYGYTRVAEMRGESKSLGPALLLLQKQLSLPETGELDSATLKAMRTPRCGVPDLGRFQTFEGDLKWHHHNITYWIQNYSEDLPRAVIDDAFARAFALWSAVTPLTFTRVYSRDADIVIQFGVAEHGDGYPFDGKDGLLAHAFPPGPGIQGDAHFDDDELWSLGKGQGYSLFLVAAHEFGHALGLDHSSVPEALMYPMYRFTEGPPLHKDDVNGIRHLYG
Experimental: (§1) The ThermoFluor® (TF) assay is a 384-well plate-based binding assay that measures thermal stability of proteins (Biomol Screen 2001, 6, 429-40; Biochemistry 2005, 44, 5258-66). The experiments were carried out using instruments available from Johnson & Johnson Pharmaceutical Research & Development, LLC. TF dye used in all experiments was […] (1,8-ANS) (Invitrogen: A-47).
(§2) Compounds were arranged in a pre-dispensed plate (Greiner Bio-one: 781280), wherein compounds were serially diluted in 100% DMSO across 11 columns within a series. Columns 12 and 24 were used as DMSO reference and contained no compound. For multiple compound concentration-response experiments, the compound aliquots ([…]) were robotically predispensed directly into black 384-well polypropylene PCR microplates (Abgene: TF-0384/k) using a Cartesian Hummingbird liquid handler (DigiLab, Holliston, Mass.). Following compound dispense, protein and dye solutions were added to achieve the final assay volume of 3 μL. The assay solutions were overlayed with 1 μL of silicone oil (Fluka, type DC 200: 85411) to prevent evaporation.
(§3) Assay plates were robotically loaded onto a thermostatically controlled PCR-type thermal block and then heated from 40 to 90° C. at a ramp-rate of 1° C./min for all experiments. Fluorescence was measured by continuous illumination with UV light (Hamamatsu LC6) supplied via fiber optics and filtered through a band-pass filter (380-400 nm; >60D cutoff). Fluorescence emission of the entire 384-well plate was detected by measuring light intensity using a CCD camera (Sensys, Roper Scientific) filtered to detect 500±25 nm, resulting in simultaneous and independent readings of all 384 wells. A single image with 20-sec exposure time was collected at each temperature, and the sum of the pixel intensity in a given area of the assay plate was recorded vs temperature and fit to standard equations to yield the Tm (J Biomol Screen 2001, 6, 429-40).
(§4) Thermodynamic parameters necessary for fitting compound binding for each proMMP were estimated by differential scanning calorimetry (DSC) and from ThermoFluor® data. The heat capacity of unfolding for each protein was estimated from the molecular weight and from ThermoFluor® dosing data.
ThermoFluor® with proMMP9(20-445;ΔFnII (SEQ ID NO:6)
The protein sample preparations included a desalting buffer exchange step via a PD-10 gravity column (GE Healthcare). The desalting buffer exchange was performed prior to diluting the protein to the final assay concentration of 2.8 μM proMMP9(20-445;ΔFnII) (SEQ ID NO:6). The concentration of proMMP9(20-445;ΔFnII) (SEQ ID NO:6) was determined spectrophotometrically based on a calculated extinction coefficient of ε280=39880 M^−1 cm^−1, a calculated molecular weight of 28.2 kDa, and calculated pI of 5.5. ThermoFluor® reference conditions were define as follows: 80 μg/mL (2.8 μM) proMMP9(20-445;ΔFnII) (SEQ ID NO:6), 50 μM 1,8-ANS, pH 7.0 Buffer (50 mM HEPES pH 7.0, 100 mM NaCl, 0.001% Tween-20, 2.5 mM MgCl2, 300 μM CaCl2). The thermodynamic parameters for proMMP9(20-445;ΔFnII) (SEQ ID NO:6) are as follows: Tm (° C.)=72 (+/−0.1), ΔUH(Tm) (cal mol^−1)=160000(+/−5000), ΔUS(Tm) (cal mol^−1 K^−1)=434, ΔUCp (cal mol^−1 K^−1)=2400.

[2] = biological target: T2, proMMP9(67-444;ΔFnII) (SEQ ID NO:5) (Homo sapiens, UniProt P14780, DEL216-390); test: ThermoFluor binding assay with proMMP9(67-444;ΔFnII)
T2 construct: start methionine (N); made in house; host or cells: E. coli BL21(DE3) RIL
T2 sequence (P14780 with tags, fused parts or gaps DEL216-390): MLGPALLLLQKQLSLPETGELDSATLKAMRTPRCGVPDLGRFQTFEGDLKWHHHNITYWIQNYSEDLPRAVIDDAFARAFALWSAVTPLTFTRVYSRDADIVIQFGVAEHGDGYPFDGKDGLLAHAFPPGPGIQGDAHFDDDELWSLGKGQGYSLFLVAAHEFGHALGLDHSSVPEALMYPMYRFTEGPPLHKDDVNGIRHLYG
Experimental: as §1, §2, §3, §4
ThermoFluor® with proMMP9(67-444;ΔFnII (SEQ ID NO:5)
The protein sample preparations had to include a desalting buffer exchange step via a PD-10 gravity column (GE Healthcare). The desalting buffer exchange was performed prior to diluting the protein to the final assay concentration of 3.5 μM proMMP9(67-444;ΔFnII) (SEQ ID NO:5). The concentration of proMMP9(67-444;ΔFnII) (SEQ ID NO:5) was determined spectrophotometrically based on a calculated extinction coefficient of ε280=33900 M^−1 cm^−1, a calculated molecular weight of 22.6 kDa, and calculated pI of 5.20. ThermoFluor® reference conditions were defined as follows: 80 μg/mL (3.5 μM) proMMP9(67-444;ΔFnII) (SEQ ID NO:5), 50 μM 1,8-ANS, pH 7.0 Buffer (50 mM HEPES pH 7.0, 100 mM NaCl, 0.001% Tween-20, 2.5 mM MgCl2, 300 μM CaCl2). The thermodynamic parameters for proMMP9(67-444;ΔFnII) (SEQ ID NO:5) are as follows: Tm (° C.)=63 (+/−0.1), ΔUH(Tm) (cal mol^−1)=105000(+/−5000), ΔUS(Tm) (cal mol^−1 K^−1)=450, ΔuCp (cal mol^−1 K^−1)=2000.

[3] = biological target: T3, full-length proMMP9(1-707) (SEQ ID NO:1), activation by catalytic MMP3 (Homo sapiens, UniProt P14780, R574P); test: proMMP9/MMP3 P126 Activation Assay; type: biochemical
T3 construct: made in house; host or cells: HEK293 (transient, secreted)
T3 sequence (P14780 20-707 R574P): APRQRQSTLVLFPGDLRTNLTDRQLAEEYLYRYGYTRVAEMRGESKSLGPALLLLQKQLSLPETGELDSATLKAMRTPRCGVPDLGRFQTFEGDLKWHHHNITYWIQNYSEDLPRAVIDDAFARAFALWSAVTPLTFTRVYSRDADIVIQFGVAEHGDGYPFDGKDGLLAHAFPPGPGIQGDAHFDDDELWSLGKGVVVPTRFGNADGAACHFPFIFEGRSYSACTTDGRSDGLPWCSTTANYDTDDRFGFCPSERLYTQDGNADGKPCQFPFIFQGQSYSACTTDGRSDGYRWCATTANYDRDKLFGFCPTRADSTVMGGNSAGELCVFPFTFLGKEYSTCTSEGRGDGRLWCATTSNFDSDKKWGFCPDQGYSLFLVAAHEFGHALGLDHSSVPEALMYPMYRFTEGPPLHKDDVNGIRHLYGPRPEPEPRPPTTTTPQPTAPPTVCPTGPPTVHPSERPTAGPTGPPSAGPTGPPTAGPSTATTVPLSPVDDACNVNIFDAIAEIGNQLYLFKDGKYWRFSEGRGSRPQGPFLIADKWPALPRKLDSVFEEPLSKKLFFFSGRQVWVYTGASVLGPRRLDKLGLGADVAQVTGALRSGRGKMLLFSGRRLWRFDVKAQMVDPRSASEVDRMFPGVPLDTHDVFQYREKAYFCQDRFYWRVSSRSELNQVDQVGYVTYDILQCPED
Experimental: proMMP9/MMP3 P126 Activation Assay
The reaction volume was 50 μL. […] Reactivity of residual MMP3 towards P-126 substrate was minimal under these conditions.

Which results are given for `COc1cc(C)c(C(N)=O)cc1Nc1nc(-c2ccc3c(c2)ncn3C)cs1` [Example 1, 4-Methoxy-2-methyl-5-[4-(1-methyl-1H-benzoimidazol-5-yl)-thiazol-2-ylamino]-benzamide]?
Kd [1]: 1700 nM; Kd [2]: 7.5 µM; IC50 [3]: 2300 nM

What does the source list for `CC(C)Cc1ccc(C(N)=O)cc1Nc1nc(-c2ccc3c(c2)ncn3C)cs1` [Example 2, 4-Isobutyl-3-[4-(1-methyl-1H-benzoimidazol-5-yl)-thiazol-2-ylamino]-benzamide•TFA]?
Kd [1]: 690 nM; Kd [2]: 6 µM; IC50 [3]: ~3000 nM

For `CC(C)Oc1ccc(S(N)(=O)=O)cc1Nc1nc(-c2ccc3c(c2)ncn3C)cs1` [Example 9, 4-Isopropoxy-3-[4-(1-methyl-1H-benzoimidazol-5-yl)-thiazol-2-ylamino]-benzenesulfonamide•HCl], which Kd [1] is on record?
Its Kd is 260 nM.

And the Kd [2]?
The Kd was 2 µM.

What about the IC50 [3] of the same compound?
Its IC50 is 150 nM.

For `COc1ccc(C(N)=O)cc1Nc1nc(-c2ccc3c(c2)ncn3C)cs1` [Example 10, 4-Methoxy-3-[4-(1-methyl-1H-benzoimidazol-5-yl)-thiazol-2-ylamino]-benzamide], which Kd [1] is on record?
Its Kd is 320 nM.

What about the Kd [2] of the same compound?
Its Kd is 0.99 µM.

And the IC50 [3]?
Its IC50 is 850 nM.

How did the Kd [1] turn out when `COc1ccc(S(N)(=O)=O)cc1Nc1nc(-c2ccc3c(c2)ncn3C)cs1` [Example 11, 4-Methoxy-3-[4-(1-methyl-1H-benzoimidazol-5-yl)-thiazol-2-ylamino]-benzenesulfonamide] was run?
Its Kd is 4800 nM.

What about the Kd [2] of the same compound?
Its Kd is 11 µM.

And the IC50 [3]?
Its IC50 is 860 nM.

With `Cn1cnc2cc(-c3csc(Nc4cc(S(N)(=O)=O)ccc4OC(F)(F)F)n3)ccc21` [Example 12, 3-[4-(1-Methyl-1H-benzoimidazol-5-yl)-thiazol-2-ylamino]-4-trifluoromethoxy-benzenesulfonamide] as the compound, how does the Kd [1] read?
The Kd was 750 nM.

And the Kd [2]?
The Kd was 5.3 µM.

What about the IC50 [3] of the same compound?
Its IC50 is 860 nM.

Which Kd [1] does the source give for `CC(C)Oc1ccc(C(N)=O)cc1Nc1nc(-c2ccc3c(cnn3C)c2)cs1` [Example 14, 4-Isopropoxy-3-[4-(1-methyl-1H-indazol-5-yl)-thiazol-2-ylamino]-benzamide•TFA] here?
Its Kd is 67 nM.

And the Kd [2]?
The Kd was 0.67 µM.

And the IC50 [3]?
Its IC50 is 350 nM.

Which results are given for `CC(C)Oc1ccc(S(N)(=O)=O)cc1Nc1nc(-c2ccc3c(cnn3C)c2)cs1` [Example 15, 4-Isopropoxy-3-[4-(1-methyl-1H-indazol-5-yl)-thiazol-2-ylamino]-benzenesulfonamide•TFA]?
Kd [1]: 110 nM; Kd [2]: 0.28 µM; IC50 [3]: 550 nM

Which results are given for `Cn1ncc2cc(-c3csc(Nc4cc(C(N)=O)ccc4OC(F)(F)F)n3)ccc21` [Example 16, 3-[4-(1-Methyl-1H-indazol-5-yl)-thiazol-2-ylamino]-4-trifluoromethoxy-benzamide•TFA]?
Kd [1]: 270 nM; Kd [2]: 6.7 µM; IC50 [3]: ~2000 nM

With `CC(C)Oc1ccc(S(N)(=O)=O)cc1Nc1nc(-c2ccc3c(c2)nc(CN2CCN(C)CC2)n3C)cs1` [Example 30] as the compound, how does the Kd [1] read?
The Kd was 87 nM.

What about the IC50 [3] of the same compound?
Its IC50 is 82 nM.

Which Kd [1] does the source give for `CC(C)Oc1ccc(S(N)(=O)=O)cc1Nc1nc(-c2ccc3c(c2)nc(CN(C)C)n3C)cs1` [Example 31, 3-((4-(2-((Dimethylamino)methyl)-1-methyl-1H-benzo[d]imidazol-5-yl)thiazol-2-yl)amino)-4-isopropoxybenzenesulfonamide•TFA] here?
Its Kd is 52 nM.

What about the IC50 [3] of the same compound?
Its IC50 is 73 nM.

Which results are given for `CC(C)Oc1ccc(S(N)(=O)=O)cc1Nc1nc(-c2ccc3c(c2)nc(CN(C)CCN(C)C)n3C)cs1` [Example 32, 3-((4-(2-(((2-(Dimethylamino)ethyl)(methyl)amino)methyl)-1-methyl-1H-benzo[d]imidazol-5-yl)thiazol-2-yl)amino)-4-isopropoxybenzenesulfonamide•TFA]?
Kd [1]: 52 nM; IC50 [3]: 200 nM

With `CC(C)Oc1ccc(S(N)(=O)=O)cc1Nc1nc(-c2ccc3[nH]c(=O)[nH]c3c2)cs1` [Example 33] as the compound, how does the Kd [1] read?
Its Kd is 82 nM.

What about the IC50 [3] of the same compound?
The IC50 was 170 nM.

With `CC(C)Oc1ccc(S(N)(=O)=O)cc1Nc1nc(-c2ccc3[nH]c(N)nc3c2)cs1` [Example 34, 3-((4-(2-Amino-1H-benzo[d]imidazol-5-yl)thiazol-2-yl)amino)-4-isopropoxybenzenesulfonamide•TFA] as the compound, how does the Kd [1] read?
Its Kd is 44 nM.

What about the IC50 [3] of the same compound?
The IC50 was 150 nM.
